Experimental data from patent US20260007133A1, “HERBICIDAL COMPOSITION COMPRISING AZINE COMPOUNDS” (BASF SE, priority 2022, published 2026).

What was measured:
Type in all cases: in vivo
[1] = system: Lolium multiflorum; test: Greenhouse pre-emergence (PRE) herbicidal test on LOLMU; settings: Lolium multiflorum, pre-emergence, 480 h
In short: (§1)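 Scoring ran from 0 (normal growth) to 100 (no emergence or above-ground parts fully destroyed) and was done 20 DAT. Application was pre-emergent in pots of loamy sand (~3.0% humus) sown per species. Plants grew at 10-25° C or 20-35° C by species.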

[2] = system: Ambrosia artemisiifolia; test: Greenhouse pre-emergence (PRE) herbicidal test on AMBEL; settings: for % activity: AMBEL PRE
[3] = system: Amaranthus retroflexus; test: Greenhouse pre-emergence (PRE) herbicidal test on AMARE
Procedure: (§2) The culture containers used were plastic pots containing loamy sand with approximately 3.0% of humus as substrate. The seeds of the test plants were sown separately for each species.
The containers were irrigated gently to promote germination and growth and subsequently covered with transparent plastic hoods until the plants had rooted.
(§3) Depending on the species, the plants were kept at 10-25° C. and 20-35° C., respectively.
(§4) The test period extended over 2 to 4 weeks. During this time, the plants were tended and their response to the individual treatments was evaluated.
(§5) Evaluation was carried out using a scale from 0 to 100. 100 means no emergence of the plants, or complete destruction of at least the above-ground parts, and 0 means no damage or normal course of growth. A good herbicidal activity is given at values of at least 70, and very good herbicidal activity is given at values of at least 85.
(§6) As indicated application was either post emergent (POST) at the respective growth stage (GS) of the weed (BBCH code), or pre-emergent (PRE). […]

[4] = system: Alopecurus myosuroides; test: Greenhouse pre-emergence (PRE) herbicidal test on ALOMY; settings: Alopecurus myosuroides, pre-emergence, 480 h
In short: as §1

[5] = system: Euphorbia heterophylla; test: Greenhouse pre-emergence (PRE) herbicidal test on EPHHL; settings: Euphorbia heterophylla, pre-emergence, 480 h
In short: as §1

[6] = system: Commelina benghalensis; test: Greenhouse pre-emergence (PRE) herbicidal test on COMBE
In short: as §1

[7] = system: Abutilon theophrasti; test: Greenhouse pre-emergence (PRE) herbicidal test on ABUTH; settings: Abutilon theophrasti, pre-emergence, 480 h, read-out: solo application % activity
In short: as §1

[8] = system: Amaranthus retroflexus; test: Greenhouse post-emergence (POST) herbicidal test on AMARE; settings: Amaranthus retroflexus, post-emergence, 480 h, read-out: solo application % activity
Procedure: as §2
(§7) For the post-emergence treatment, the test plants were grown to a plant height of from 3 to 15 cm, depending on the plant habit, and only then treated with the active compounds which had been suspended or emulsified in water. To this end, the test plants were either sown directly, and grown in the same containers, or they were first grown separately as seedlings and transplanted into the test containers a few days prior to treatment.
as §3, §4, §5
(§8) If not stated differently, the respective components A and B, and if appropriate, C were formulated as a 5% by weight strength emulsion concentrate and, with addition of the amount of solvent system, introduced into the spray liquor used for applying the active compound.
as §6

[9] = system: Geranium pusillum; test: Greenhouse post-emergence (POST) herbicidal test on GERPU; settings: Geranium pusillum, post-emergence, 480 h, read-out: solo application % activity
In short: (§9)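 Plants grown in pots of loamy sand (~3.0% humus) to 3–15 cm height, then sprayed with compounds suspended or emulsified in water (formulated as 5% by weight emulsion concentrate). Kept at 10-25° C or 20-35° C by species; injury scored 0–100 (100 = complete destruction) at 20 DAT.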

[10] = system: Abutilon theophrasti; test: Greenhouse post-emergence (POST) herbicidal test on ABUTH; settings: Abutilon theophrasti, post-emergence, 480 h, read-out: solo application % activity
In short: as §9

[11] = system: Digitaria sanguinalis; test: Greenhouse post-emergence (POST) herbicidal test on DIGSA; settings: Digitaria sanguinalis, post-emergence, 480 h, read-out: solo application % activity
In short: as §9

[12] = system: Setaria viridis; test: Greenhouse pre-emergence (PRE) herbicidal test on SETVI; settings: Setaria viridis, pre-emergence, 480 h, read-out: solo application % activity
Text: as §2
For the pre-emergence treatment, the active compounds, suspended or emulsified in water, were applied directly after sowing by means of finely distributing nozzles. The containers were irrigated gently to promote germination and growth and subsequently covered with transparent plastic hoods until the plants had rooted. This cover caused uniform germination of the test plants unless this was adversely affected by the active compounds.
as §3, §4, §5, §8, §6

[13] = system: Echinochloa crus-galli; test: Greenhouse post-emergence (POST) herbicidal test on ECHCG; settings: Echinochloa crus-galli, post-emergence, 480 h, read-out: solo application % activity
In short: as §9

[14] = system: Ipomoea hederacea; test: Greenhouse post-emergence (POST) herbicidal test on IPOHE; settings: Ipomoea hederacea, post-emergence, 480 h, read-out: solo application % activity
Procedure: as §2, §7, §3, §4, §5, §8
As indicated application was either post emergent (POST) at the respective growth stage (GS) of the weed (BBCH code), or pre-emergent (PRE).
Assessment was 20 days after treatment (DAT).

[15] = system: Euphorbia heterophylla; test: Greenhouse post-emergence (POST) herbicidal test on EPHHL; settings: Euphorbia heterophylla, post-emergence, 480 h, read-out: solo application % activity
In short: as §9

[16] = Ambrosia artemisiifolia, pre-emergence, 480 h, read-out: % activity
[17] = Commelina benghalensis, pre-emergence, 480 h, read-out: % activity
[18] = read-out: solo application % activity
[19] = Ambrosia artemisiifolia, pre-emergence, 480 h, read-out: solo application % activity
[20] = Commelina benghalensis, pre-emergence, 480 h, read-out: solo application % activity

For `CCOC(=O)C(C)Oc1ccc(Oc2cnc3cc(Cl)ccc3n2)cc1` (stereo not shown) [Quizalofop-Ethyl, quizalofop-ethyl], the pest or weed control at 2 g/ha ([1]; read-out: % activity) was 0%, the pest or weed control at 4 g/ha ([1]; read-out: % activity) was 0% and the pest or weed control at 2 g/ha [2, 16] was 0%. It also gave a pest or weed control at 4 g/ha [2, 16] of 0%, a pest or weed control at 4 g/ha ([3]; Amaranthus retroflexus, pre-emergence, 480 h, read-out: % activity) of 0% and a pest or weed control at 2 g/ha ([4]; read-out: % activity) of 0%. It also gave a pest or weed control at 4 g/ha ([5]; read-out: % activity) of 5%, a pest or weed control at 2 g/ha [6, 17] of 0% and a pest or weed control at 4 g/ha [6, 17] of 0%.

With `COc1c(Cl)ccc(-c2nc(C(=O)OCc3ccccc3)c(Cl)c(N)c2F)c1F` [Florpyrauxifen-Benzyl, florpyrauxifen-benzyl] the “% activity” value ([2]; use rate 1.25 gai/ha) was 30%, the “% activity” value ([2]; use rate 5 gai/ha) was 45% and the “% activity” value ([3]; AMARE PRE, use rate 5 gai/ha) was 0%. The “% activity” value ([6]; COMBE PRE, use rate 5 gai/ha) was 45%.

`CCSC(C)CC1CC(=O)C(/C(CC)=N/OC/C=C/Cl)=C(O)C1` (stereo not shown) [Clethodim, clethodim] was tested, and the inhibition at 5 g/ha [1, 18] was 60%, the inhibition at 5 g/ha [7] was 0% and the inhibition at 5 g/ha [8] was 0%. The inhibition at 10 g/ha [8] was 0%, the inhibition at 5 g/ha [2, 19] was 0% and the inhibition at 10 g/ha [2, 19] was 0%. The inhibition at 5 g/ha [9] was 0%, the inhibition at 10 g/ha [9] was 0% and the inhibition at 10 g/ha [10] was 0%. For the same molecule, the inhibition at 10 g/ha [11] was 80%, the inhibition at 5 g/ha [12] was 25% and the inhibition at 5 g/ha [4, 18] was 60%. It also gave an inhibition at 10 g/ha [4, 18] of 75%, an inhibition at 5 g/ha [5, 18] of 0% and an inhibition at 10 g/ha [5, 18] of 0%. The inhibition at 5 g/ha [13] was 80%, the inhibition at 5 g/ha [14] was 0% and the inhibition at 5 g/ha [15] was 0%. For the same molecule, the inhibition at 10 g/ha [15] was 0%, the inhibition at 5 g/ha [6, 20] was 0% and the inhibition at 10 g/ha [6, 20] was 0%.
